Data set [1] deals with Carbonic anhydrase 4 (Homo sapiens) (UniProt P22748). Description: Activation of human recombinant truncated CA4 at 10 uM by stopped-flow CO2 hydration method.
Data set [2] addresses Carbonic anhydrase 3 (Homo sapiens) (UniProt P07451). In words: Activation of human recombinant CA3 at 10 uM by stopped-flow CO2 hydration method.
The test system of data set [3] is N[C@H](Cc1c[nH]cn1)C(=O)O. In words: (§1) Activity of human recombinant CA1 at 10 uM by stopped-flow CO2 hydration method.
For data set [4], the system named is N[C@@H](Cc1c[nH]cn1)C(=O)O. The description is as §1.
Data set [5] deals with Carbonic anhydrase 1 (Homo sapiens) (UniProt P00915). Description: Activation of human recombinant CA1 at 10 uM by stopped-flow CO2 hydration method.
Chain of Carbonic anhydrase 1 (Homo sapiens) (P00915 2-261 limits assumed): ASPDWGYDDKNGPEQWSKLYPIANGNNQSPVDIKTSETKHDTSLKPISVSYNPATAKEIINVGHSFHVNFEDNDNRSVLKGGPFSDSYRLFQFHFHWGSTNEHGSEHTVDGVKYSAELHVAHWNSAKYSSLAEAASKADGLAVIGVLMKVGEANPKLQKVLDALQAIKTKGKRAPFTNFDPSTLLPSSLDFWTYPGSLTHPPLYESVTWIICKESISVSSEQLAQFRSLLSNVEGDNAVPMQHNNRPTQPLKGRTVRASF
In data set [6] the test system is N[C@H](Cc1c[nH]cn1)C(=O)O. Description: (§2) Activity of human recombinant CA2 at 10 uM stopped-flow CO2 hydration method.
The test system of data set [7] is N[C@@H](Cc1c[nH]cn1)C(=O)O. The data set is described as §2.
The target in data set [8] is Carbonic anhydrase 2 (Homo sapiens) (UniProt P00918). Description: Activation of human recombinant CA2 at 10 uM by stopped-flow CO2 hydration method.

Chain of Carbonic anhydrase 4 (Homo sapiens) (P22748 whole entry, the tested form may be a part): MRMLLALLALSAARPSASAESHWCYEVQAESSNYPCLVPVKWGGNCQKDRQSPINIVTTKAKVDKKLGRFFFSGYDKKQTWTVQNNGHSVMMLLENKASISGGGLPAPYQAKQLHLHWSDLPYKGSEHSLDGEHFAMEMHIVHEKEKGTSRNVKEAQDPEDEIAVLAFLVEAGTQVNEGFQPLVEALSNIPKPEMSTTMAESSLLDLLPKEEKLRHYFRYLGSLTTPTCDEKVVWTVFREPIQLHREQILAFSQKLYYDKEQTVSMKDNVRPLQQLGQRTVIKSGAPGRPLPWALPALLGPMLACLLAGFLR
Chain of Carbonic anhydrase 3 (Homo sapiens) (P07451 whole entry): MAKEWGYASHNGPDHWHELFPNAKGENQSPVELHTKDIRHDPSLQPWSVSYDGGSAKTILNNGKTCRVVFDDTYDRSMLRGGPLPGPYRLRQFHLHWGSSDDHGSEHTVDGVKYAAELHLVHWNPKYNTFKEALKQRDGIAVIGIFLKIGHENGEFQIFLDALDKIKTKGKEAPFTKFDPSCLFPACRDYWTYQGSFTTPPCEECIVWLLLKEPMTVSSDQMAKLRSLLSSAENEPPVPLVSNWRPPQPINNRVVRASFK
Chain of Carbonic anhydrase 1 (Homo sapiens), P00915 (P00915 whole entry): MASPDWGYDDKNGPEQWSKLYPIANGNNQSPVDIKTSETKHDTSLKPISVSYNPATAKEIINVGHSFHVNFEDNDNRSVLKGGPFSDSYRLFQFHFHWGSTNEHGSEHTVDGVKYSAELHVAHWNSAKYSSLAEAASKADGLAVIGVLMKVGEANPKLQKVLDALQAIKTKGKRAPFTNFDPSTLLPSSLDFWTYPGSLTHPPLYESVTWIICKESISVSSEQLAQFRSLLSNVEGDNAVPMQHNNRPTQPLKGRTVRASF

For `NCCc1ccc(O)c(O)c1`, the Ka in data set [1] is 30.9 µM; in data set [2], 33.2 µM.

As to “Carbonic anhydrase 1 (Homo sapiens), P00915”, the kcat amounted to 9.1 ×10⁵ /s in data set [3] and 13.4 ×10⁵ /s in data set [4].

For the compound `N[C@H](Cc1ccc(O)c(O)c1)C(=O)O`, the Ka was 34.7 µM in data set [1] and 28.7 µM in data set [2].

In the case of `N[C@@H](Cc1ccc(O)cc1)C(=O)O`, the Ka was determined as 25.1 µM in data set [1] and 34.1 µM in data set [2].

Turning to `Nc1ccc(C[C@H](N)C(=O)O)cc1`, the Ka in data set [1] was found to be 0.079 µM; in data set [2], 43.2 µM.

Turning to `NCCN1CCOCC1`, the Ka in data set [1] is 1.3 µM; in data set [2], 0.091 µM.

Regarding `NCCN1CCNCC1`, the Ka in data set [1] worked out at 24.9 µM; in data set [2], 0.32 µM.

Take `NCCc1c[nH]cn1`: the figures for the Ka in data set [1], in data set [2] and in data set [5] were 25.3 µM, 36.9 µM and 2.1 µM, respectively.

For the compound “Carbonic anhydrase 2 (Homo sapiens) (from UniProt P00918)”, the kcat is 2.7 ×10⁶ /s in data set [6] and 4.3 ×10⁶ /s in data set [7].

Consider `N[C@@H](Cc1ccc(O)c(O)c1)C(=O)O`, for which the Ka in data set [1] worked out at 15.3 µM; in data set [2], 13.5 µM.

With `N[C@H](Cc1c[nH]c2ccccc12)C(=O)O`, the Ka in data set [1] was determined as 39.6 µM; in data set [2], 19 µM.

Take `N[C@@H](Cc1c[nH]cn1)C(=O)O`: the Ka in data set [1] was 7.3 µM; in data set [2] it was 35.9 µM.

For the compound `NCc1ccccn1`, the Ka in data set [1] was found to be 5.19 µM; in data set [2], 1.03 µM.

For `CNCC(O)c1ccc(O)c(O)c1` (single isomer, unassigned), the Ka in data set [8] turned out to be 96 µM; in data set [1] it was 45 µM; in data set [2], 36.4 µM; in data set [5], 0.09 µM.

Consider `NCCc1ccccn1`, for which the Ka in data set [1] came out at 7.13 µM; in data set [2], 1.1 µM.

For the compound `N[C@H](Cc1c[nH]cn1)C(=O)O`, the Ka in data set [1] came to 12.3 µM; in data set [2], 1.12 µM.

As to `N[C@@H](Cc1c[nH]c2ccccc12)C(=O)O`, the Ka in data set [1] was 37.1 µM; in data set [2], 20.5 µM.

Take `NCCc1c[nH]c2ccc(O)cc12`: the Ka came to 3.14 µM in data set [1] and 0.78 µM in data set [2].

For the origin of these results see ChEMBL document CHEMBL1155874, “Carbonic anhydrase activators: Activation of the human cytosolic isozyme III and membrane-associated isoform IV with amino acids and amines” (Bioorg Med Chem Lett, 2008).
